In patent US9868705B2, “Tetra-aryl cyclobutane inhibitors of androgen receptor action for the treatment of hormone refractory cancer” (The Board of Trustees of the University of Illinois, priority 2013, dated 2018):
Residue numbers refer to the chain shown, from its start.

How the values were obtained:
[1] = test system: LNCaP and VCaP cell lines; experiment: General toxicity screen in LNCaP and VCaP cell lines; assay type: cell-based, human; conditions: at concentrations as high as 25 μM
VCaP cells = experiment: VCaP cell proliferation; assay type: cell-based
wild type AR = biological target: T1, wild type AR (Homo sapiens, UniProt P10275); experiment: MMTV-luciferase transcription assay in CV-1 cells, wild type AR; assay type: cell-based; conditions: wild type AR; values given in μM; read-out: MMTV transcription assay in CV-1 cells WT (IC50)
T1 construct: expressed in transfected cells; host or cells: CV-1
T1 sequence (P10275 1-920): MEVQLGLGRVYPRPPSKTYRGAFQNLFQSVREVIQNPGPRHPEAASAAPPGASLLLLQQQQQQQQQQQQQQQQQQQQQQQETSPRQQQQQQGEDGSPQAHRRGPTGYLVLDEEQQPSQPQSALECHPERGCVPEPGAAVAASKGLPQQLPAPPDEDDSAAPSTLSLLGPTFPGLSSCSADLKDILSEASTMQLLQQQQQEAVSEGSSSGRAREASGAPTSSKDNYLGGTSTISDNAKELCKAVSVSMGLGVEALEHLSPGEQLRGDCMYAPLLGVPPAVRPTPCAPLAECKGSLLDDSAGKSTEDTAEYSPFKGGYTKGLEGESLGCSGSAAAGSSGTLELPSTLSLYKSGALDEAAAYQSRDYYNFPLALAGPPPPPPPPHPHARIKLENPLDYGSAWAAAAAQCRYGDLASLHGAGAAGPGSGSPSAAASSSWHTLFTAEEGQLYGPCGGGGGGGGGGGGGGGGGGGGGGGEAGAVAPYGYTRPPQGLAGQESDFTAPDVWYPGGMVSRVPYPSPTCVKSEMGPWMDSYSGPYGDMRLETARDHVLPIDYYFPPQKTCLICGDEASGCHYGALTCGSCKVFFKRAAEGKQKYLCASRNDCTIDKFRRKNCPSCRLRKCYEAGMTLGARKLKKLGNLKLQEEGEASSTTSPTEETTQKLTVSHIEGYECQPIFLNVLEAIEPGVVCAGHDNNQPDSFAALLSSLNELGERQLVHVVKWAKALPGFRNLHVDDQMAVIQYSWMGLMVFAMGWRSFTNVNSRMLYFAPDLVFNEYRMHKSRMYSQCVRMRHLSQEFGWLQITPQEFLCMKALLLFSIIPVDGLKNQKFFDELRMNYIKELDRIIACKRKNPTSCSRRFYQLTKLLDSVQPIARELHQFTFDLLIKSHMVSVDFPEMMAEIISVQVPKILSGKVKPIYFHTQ
Source text: These compounds were screened using an AR-responsive MMTV transcription assay in CV-1 cells, utilizing both wild type and T877A (LNCaP) AR. […]

AR-VP16 construct = experiment: MMTV-luciferase reporter gene assay with AR-VP16 construct (AR/DNA binding); assay type: cell-based
Source text: (§1) Accordingly, we analyzed the disruption of AR/DNA binding using a luciferase reporter gene assay transfected with an AR-VP16 construct that is constitutively active upon DNA binding, regardless of the ability of AR to recruit transcriptional machinery (FIG. 40A). Simultaneously, we examined CV-1 cells transfected with an AR construct that is only transcriptionally active when there is a positive interaction between the NTD and C-terminal LBD ([…]) (FIG. 40B).

W741C AR = biological target: T2, W741C AR (Homo sapiens, UniProt P10275, W742C); experiment: MMTV-luciferase transcription assay in CV-1 cells, W741C AR
T2 sequence (P10275 1-920 W742C): T1 sequence (P10275 1-920) with W742C

AR NTD/LBD interaction = biological target: T3, AR NTD/LBD interaction (Homo sapiens, UniProt P10275); experiment: AR NTD/LBD interaction reporter assay in CV-1 cells; assay type: cell-based
T3 construct: expressed in transfected cells; host or cells: CV-1
T3 sequence (P10275 1-920): T1 sequence (P10275 1-920)
Source text: as §1

AR = biological target: T4, AR (Homo sapiens, UniProt P10275); experiment: Western blot analysis of AR degradation; assay type: cell-based
T4 sequence (P10275 1-920): T1 sequence (P10275 1-920)

- IC50 (wild type AR): 18 µM
- inhibition of AR/DNA binding (AR-VP16 construct): inhibitory activity
- IC50 (W741C AR): 2.36 µM
- inhibition of the NTD/LBD interaction (AR NTD/LBD interaction): inhibitory activity
SMILES: COc1cc([C@H]2[C@H](c3ccccc3)[C@H](c3cc(OC)nc(OC)n3)[C@H]2c2ccccc2)nc(OC)n1 [CB-22]
- toxicity [1]: complete lack of toxicity
- inhibition of VCaP cell proliferation (VCaP cells): slow cell-growth in a dose-dependent manner
- rate of receptor proteolysis (AR): does not influence the rate of receptor proteolysis
